US9326513B2, “Fungicidal compositions” (Syngenta Participations AG, priority 2011, dated 2016)

How the values were obtained:
Type in all cases: in vivo
Conditions in all cases: foliar, compared to untreated control leaf disks, read-out: disease control
[1] = tested on: Blumeria graminis f. sp. tritici (Erysiphe graminis f. sp. tritici); assay: Blumeria graminis f. sp. tritici / wheat / leaf disc preventative (powdery mildew on wheat)
Protocol: Blumeria graminis f. sp. tritici (Erysiphe graminis f. sp. tritici)/Wheat/Leaf Disc Preventative (Powdery Mildew on Wheat)
Wheat leaf segments cv. Kanzler were placed on agar in a multiwell plate (24-well format) and sprayed with the formulated test compound diluted in water. The leaf disks were inoculated by shaking powdery mildew infected plants above the test plates 1 day after application. The inoculated leaf disks were incubated at 20° C. and 60% rh under a light regime of 24 h darkness followed by 12 h light/12 h darkness in a climate chamber and the activity of a compound was assessed as percent disease control compared to untreated when an appropriate level of disease damage appears on untreated check leaf segments (6-8 days after application).
The following compounds gave at 200 ppm give at least 50% disease control in this test when compared to untreated control leaf disks under the same conditions, which show extensive disease development: […]

[2] = tested on: Puccinia recondita f. sp. tritici; assay: Puccinia recondita f. sp. tritici / wheat / leaf disc preventative (brown rust)
Excerpt: Puccinia recondita f. sp. tritici/Wheat/Leaf Disc Preventative (Brown Rust) Wheat leaf segments cv. Kanzler were placed on agar in multiwell plates (24-well format) and sprayed with the formulated test compound diluted in water. The leaf disks were inoculated with a spore suspension of the fungus 1 day after application.

[3] = tested on: Puccinia recondita f. sp. tritici; assay: Puccinia recondita f. sp. tritici / wheat / leaf disc curative (brown rust)
Protocol: Puccinia recondita f. sp. tritici/Wheat/Leaf Disc Curative (Brown Rust) Wheat leaf segments cv. Kanzler are placed on agar in multiwell plates (24-well format). The leaf segments are inoculated with a spore suspension of the fungus. Plates were stored in darkness at 19° C. and 75% rh. The formulated test compound diluted in water was applied 1 day after inoculation.

Measured: pest or weed control at 200 ppm

CSc1ccccc1COc1ccc(/N=C/N(C)C(C)C)c(C)n1 [Q.339]
≥ 50%: all assays above

CCc1ccccc1C(C)Oc1nc(C)c(/N=C/N(C)CC)cc1Br (stereo not drawn) [Q.283]
≥ 50%: all assays above

CCN(C)/C=N/c1cc(Br)c(OC(C)c2ccccc2Br)nc1C (stereo not drawn) [Q.303]
≥ 50%: all assays above

CCN(C)/C=N/c1cc(Br)c(OC2CCc3c(OC)cccc32)nc1C (stereo not drawn) [Q.050]
≥ 50%: all assays above

CCN(C)/C=N/c1cc(Br)c(OCc2ccccc2C)nc1Br [Q.397]
≥ 50%: all assays above

Cc1nc(OC(C)c2cc(F)cc(F)c2)c(Br)cc1/N=C/N(C)C(C)C (stereo not drawn) [Q.188]
≥ 50%: all assays above

CCN(C)/C=N/c1cc(Br)c(OCc2ccc(F)c(C)c2)nc1C [Q.323]
≥ 50%: all assays above

CCN(C)/C=N/c1cc(Br)c(OCc2snc(-c3ccccc3)c2Cl)nc1C [Q.109]
≥ 50%: all assays above

CCN(C)/C=N/c1cc(Br)c(OCCCC=C(C)C)nc1C [Q.118]
≥ 50%: all assays above

CCN(C)/C=N/c1cc(Br)c(OC2CCC(C(C)(C)C)CC2)nc1C (stereo not drawn) [Q.081]
≥ 50%: all assays above

CCN(C)/C=N/c1cc(Br)c(OC(C)CC[Si](C)(C)C)nc1C (stereo not drawn) [Q.273]
≥ 50%: all assays above

CCOc1nc(C)c(/N=C/N(C)CC)cc1Br [Q.085]
≥ 50%: all assays above

COc1cc(OC)cc(C(C)Oc2ccc(/N=C/N(C)C(C)C)c(C)n2)c1 (stereo not drawn) [Q.374]
≥ 50%: all assays above

CCC(Oc1ccc(/N=C/N(C)CC)c(C)n1)c1ccccc1 (stereo not drawn) [Q.347]
≥ 50%: all assays above

CCC(Oc1nc(C)c(/N=C/N(C)CC)cc1Br)c1cc(F)cc(F)c1 (stereo not drawn) [Q.327]
≥ 50%: all assays above

C=CCN1CCC(Oc2nc(C)c(/N=C/N(C)CC)cc2Br)CC1 [Q.165]
≥ 50%: all assays above

CCN(C)/C=N/c1cc(Br)c(OCCCCc2ccc(Cl)cc2)nc1C [Q.045]
≥ 50%: all assays above

CCN(C)/C=N/c1cc(Br)c(OCC2CC=CC2)nc1C [Q.098]
≥ 50%: all assays above

CCN(C)/C=N/c1cc(Br)c(O[C@H]2CC[C@H](c3ccccc3)CC2)nc1C [Q.270]
≥ 50%: all assays above

CCN(C)/C=N/c1cc(Br)c(OCc2ccccc2CCc2ccccc2)nc1C [Q.309]
≥ 50%: all assays above

CCN(C)/C=N/c1ccc(OC(C)Cc2ccccc2)nc1C (stereo not drawn) [Q.368]
≥ 50%: all assays above

CCN(C)/C=N/c1cc(Br)c(OCc2ccccc2OC)nc1C [Q.330]
≥ 50%: all assays above

CCN(C)/C=N/c1cc(Br)c(OC2CCC(=O)CC2C)nc1C (single isomer, unassigned) [Q.332]
≥ 50%: all assays above

C#CC(C)Oc1nc(C)c(/N=C/N(C)CC)cc1Br (stereo not drawn) [Q.080]
≥ 50%: all assays above

C=Cc1ccccc1C(C)Oc1nc(C)c(/N=C/N(C)CC)cc1Br (stereo not drawn) [Q.276]
≥ 50%: all assays above

CCN(C)/C=N/c1cc(Br)c(OC2CCCc3ccc(Br)cc32)nc1C (stereo not drawn) [Q.126]
≥ 50%: all assays above

CCN(C)/C=N/c1ccc(OC2CCCCC2C)nc1C (stereo not drawn) [Q.341]
≥ 50%: all assays above

CCN(C)/C=N/c1cc(C)c(O[C@H]2CC[C@H](C(C)C)CC2)nc1C [Q.185]
≥ 50%: all assays above

CCCc1ccccc1C(C)Oc1nc(C)c(/N=C/N(C)CC)cc1Br (stereo not drawn) [Q.287]
≥ 50%: all assays above

CCN(C)/C=N/c1cc(Br)c(OC2CCCCCC2)nc1C [Q.171]
≥ 50%: all assays above

CCN(C)/C=N/c1cc(Br)c(OCC2CC(C)=C(C)C2)nc1C [Q.134]
≥ 50%: all assays above

CCN(C)/C=N/c1cc(Br)c(OCc2ccc(Cl)c(Cl)c2)nc1C [Q.064]
≥ 50%: all assays above

CCN(C)/C=N/c1cc(Br)c(OCC(C)F)nc1C (stereo not drawn) [Q.384]
≥ 50%: all assays above

Cc1nc(OCCCC(C)C)c(Br)cc1/N=C/N(C)C [Q.006]
≥ 50%: all assays above

CCN(C)/C=N/c1cc(Br)c(OC(C)CCc2ccccc2)nc1C (stereo not drawn) [Q.147]
≥ 50%: all assays above

CCN(C)/C=N/c1cc(Br)c(OCc2snc(C(C)C)c2C#N)nc1C [Q.156]
≥ 50%: all assays above

CCCc1ccccc1COc1nc(C)c(/N=C/N(C)CC)cc1Br [Q.345]
≥ 50%: all assays above

CCN(C)/C=N/c1cc(Br)c(OCc2cc(F)c(F)c(F)c2)nc1C [Q.317]
≥ 50%: all assays above

CCN(C)/C=N/c1cc(Br)c(OC2CCCC(C)C2)nc1C (stereo not drawn) [Q.149]
≥ 50%: all assays above

CCN(C)/C=N/c1cc(Br)c(OCc2ccc(C)nc2)nc1C [Q.130]
≥ 50%: all assays above
